Consider eight molecules from paper PMC10147923, “Pain-causing stinging nettle toxins target TMEM233 to modulate NaV1.7 function” (Nature Communications, 2023).

Several values for one entry are separate records, joined by “and”; a condition that tells them apart may be missing. Equal entries are not always repeated. Where two headings read alike, the source gives them in different places. Positions of bridges follow the written chain, without caps; N, C: chain ends. Residues, ends and D or L forms follow the SMILES beside them. *: point of attachment. Biotin = O=C1N[C@H]2[C@H](CS[C@H]2CCCCC(=O)*)N1; PEG4 = NCCOCCOCCOCCOCCC(=O)O

Series [1] has as its system total and TTX-s NaV current in wild-type DRG neurons. Kind of series: Persistent total NaV current, manual patch clamp, mouse DRG neurons. The class given is cell-based.
In series [2] the target is T1, NaV1.7 (Homo sapiens, UniProt Q15858). Type of series: cell-based.
T1 sequence (Q15858 whole entry): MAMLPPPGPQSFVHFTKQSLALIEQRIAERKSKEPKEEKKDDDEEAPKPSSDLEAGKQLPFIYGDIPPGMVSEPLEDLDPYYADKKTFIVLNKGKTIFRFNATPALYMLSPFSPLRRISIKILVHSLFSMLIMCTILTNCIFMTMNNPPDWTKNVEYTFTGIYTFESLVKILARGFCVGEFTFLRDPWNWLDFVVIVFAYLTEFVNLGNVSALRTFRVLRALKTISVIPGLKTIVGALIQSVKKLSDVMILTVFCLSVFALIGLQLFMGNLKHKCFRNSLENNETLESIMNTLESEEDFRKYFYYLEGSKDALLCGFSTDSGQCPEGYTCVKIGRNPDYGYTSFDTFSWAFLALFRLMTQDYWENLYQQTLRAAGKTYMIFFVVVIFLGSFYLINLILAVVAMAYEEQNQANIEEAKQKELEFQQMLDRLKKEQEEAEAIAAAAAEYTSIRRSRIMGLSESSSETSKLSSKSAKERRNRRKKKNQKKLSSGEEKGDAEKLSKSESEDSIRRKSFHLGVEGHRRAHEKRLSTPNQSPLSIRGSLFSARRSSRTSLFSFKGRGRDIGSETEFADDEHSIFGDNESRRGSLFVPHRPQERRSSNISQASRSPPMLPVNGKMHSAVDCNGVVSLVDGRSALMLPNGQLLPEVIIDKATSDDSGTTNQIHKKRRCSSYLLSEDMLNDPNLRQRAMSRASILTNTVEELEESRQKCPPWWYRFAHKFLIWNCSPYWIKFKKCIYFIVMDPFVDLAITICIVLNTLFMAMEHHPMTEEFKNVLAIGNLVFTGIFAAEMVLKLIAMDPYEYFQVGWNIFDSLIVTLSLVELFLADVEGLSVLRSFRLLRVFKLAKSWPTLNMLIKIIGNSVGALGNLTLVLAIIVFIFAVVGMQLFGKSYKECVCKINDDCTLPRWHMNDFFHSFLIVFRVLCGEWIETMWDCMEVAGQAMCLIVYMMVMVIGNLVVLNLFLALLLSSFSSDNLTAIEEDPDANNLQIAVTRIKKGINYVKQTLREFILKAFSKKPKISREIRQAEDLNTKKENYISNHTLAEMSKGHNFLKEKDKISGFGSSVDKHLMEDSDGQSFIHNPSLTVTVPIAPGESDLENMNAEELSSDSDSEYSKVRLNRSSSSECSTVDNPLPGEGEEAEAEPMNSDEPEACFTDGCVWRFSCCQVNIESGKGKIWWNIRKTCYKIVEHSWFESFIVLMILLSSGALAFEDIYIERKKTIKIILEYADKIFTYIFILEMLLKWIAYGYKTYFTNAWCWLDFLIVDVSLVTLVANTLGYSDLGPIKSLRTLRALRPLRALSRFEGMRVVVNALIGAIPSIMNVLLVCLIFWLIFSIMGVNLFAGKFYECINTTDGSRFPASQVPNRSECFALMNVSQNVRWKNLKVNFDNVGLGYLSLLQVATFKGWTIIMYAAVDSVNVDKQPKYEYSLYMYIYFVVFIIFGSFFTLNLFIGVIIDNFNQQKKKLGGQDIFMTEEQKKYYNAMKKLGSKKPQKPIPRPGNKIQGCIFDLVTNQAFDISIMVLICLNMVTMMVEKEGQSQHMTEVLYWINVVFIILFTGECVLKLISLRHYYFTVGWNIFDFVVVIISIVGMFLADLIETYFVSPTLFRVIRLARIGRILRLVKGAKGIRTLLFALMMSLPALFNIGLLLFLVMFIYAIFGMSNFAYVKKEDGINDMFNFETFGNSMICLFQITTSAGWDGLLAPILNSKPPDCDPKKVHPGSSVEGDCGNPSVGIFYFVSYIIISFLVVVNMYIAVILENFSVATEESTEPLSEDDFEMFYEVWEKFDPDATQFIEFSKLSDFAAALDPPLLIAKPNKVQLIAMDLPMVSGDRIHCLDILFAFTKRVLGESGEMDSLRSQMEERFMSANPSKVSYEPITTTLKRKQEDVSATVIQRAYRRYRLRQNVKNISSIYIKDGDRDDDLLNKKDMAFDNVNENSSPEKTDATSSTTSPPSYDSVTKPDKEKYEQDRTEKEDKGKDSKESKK
T1 sequence (Q07699 19-218, further chain): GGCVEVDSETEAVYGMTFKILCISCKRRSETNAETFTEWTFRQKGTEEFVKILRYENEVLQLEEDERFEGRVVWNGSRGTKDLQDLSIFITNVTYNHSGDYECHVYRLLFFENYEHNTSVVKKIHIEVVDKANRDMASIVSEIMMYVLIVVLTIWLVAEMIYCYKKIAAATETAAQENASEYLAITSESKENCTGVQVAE
Series [3] has as its system NaV1.7 endogenously expressed in TE-671 cells. Nature of the series: Persistent NaV current, TE-671 cells (automated patch clamp). The class given is cell-based. (In general: In patch-clamp work, channel activity is measured electrically.)
In another series the test system is TE-671 cells. To be noted: veratridine 5 µM, ouabain 20 nM.
In series [4] the target is T2, NaV1.7/TMEM233 (Homo sapiens, UniProt B4DJY2+Q15858). The class given is cell-based. To be noted: best-fit value, log(agonist) vs. response -- variable slope (four parameters). As to the method:
HEK293-NaV1.7 cells were transfected with TMEM233, CRELD1, LMAN2L, MMGT1, RNF121 and STT3B and co-transfected with five plasmids coding for the Glycosylphosphatidylinositol (GPI) complex (GPAA1, PIGK, PIGS, PIGU, PIGT) using Lipofectamine 2000. After 24 h, transfected cells were harvested and plated at a density of 10,000–15,000 cells per well on black-walled 384-well imaging plates. Plated cells were cultured for a further 24 h at 37 °C and 5% CO2. FLIPR (Fluorescent Imaging Plate Reader) Red membrane potential assay dye (Molecular Devices, California, USA) was diluted in physiological salt solution according to the manufacturer’s instructions (PSS, in mM: NaCl 140, glucose 11.5, HEPES 10, KCl 5.9, MgCl2 1.4, NaH2PO4 1.2, NaHCO3 5, CaCl2 1.8, pH 7.4). Growth medium was removed from the plate and replaced with 20 µL of FLIPR Red membrane potential assay dye per well and incubated in the dark at 37 °C for 60 min. […] Fluorescence responses to ExTxA were computed as the maximum change in fluorescence over baseline (ΔF/F0) using ScreenWorks (Molecular Devices, Version 5.1.2.94).

For series [5], the target named is T2, NaV1.7/TMEM233. Nature of the series: Proximity ligation assay NaV1.7 and TMEM233. To be noted: Fig 5e. As to the method: HEK293 cells stably expressing β1/β2 were transiently transfected in T25 flasks using Lipofectamine 2000 with plasmids encoding GFP (0.35 μg) as a transfection control, as well as N-terminal HA-tagged TMEM233 (0.35 μg) and N-terminal FLAG- tagged NaV1.7 (1.0 μg) alone or in combination. The total amount of plasmid DNA/T25 flask was kept constant at 1.7 μg flask using empty pcDNA3.1 plasmid as required. After 24 h incubation at 37 °C, cells were plated on PDL-coated glass coverslips and cultured for a further 24 h. Cells were washed once using sterile phosphate-buffered saline, fixed with 4% formaldehyde for 5 min, permeabilized with 0.1% Triton-X 100 in PSS, blocked using proximity ligation bocking buffer (Sigma DUO82007) and incubated for 1 h with anti-FLAG (1:1000; Sigma F1804) and anti-HA (1:1000; Sigma H6908) antibodies in Duolink antibody diluent. Permeabilized cells were then washed twice with wash buffer A at room temperature for 5 min. Anti-mouse PLUS (Sigma DUO92001) and anti-rabbit MINUS (Sigma DUO92005) probes were diluted 1:5 in Duolink antibody diluent and incubated with cells for 1 h at 37 °C. Cells were then washed with wash buffer A at room temperature for 5 min twice and incubated with ligase diluted 1:40 in ligation buffer. After incubation at 37 °C for 30 mins, cells were washed twice with wash buffer A. Polymerase was diluted 1:80 in amplification buffer and incubated with cells for 100 mins at 37 °C. Cells were subsequently washed with wash buffer B twice for 10 mins and mounted with Duolink In Situ mounting media with DAPI. Cells were imaged on a Zeiss AxioImage M2 with Apotome2 and Axiocam 506 camera. Proximity ligation assay signal (PLA particles) in GFP-positive cells were quantified using ImageJ in collapsed stacks from 3–6 random images obtained per coverslip (Image>Type>8-bit; Image>Adjust>Threshold; Image>Analyze>Analyze Particles). Particles size was set to 0.0003–∞ and circularity to 0.00–1.00. The average number of particles/GFP-positive cells from three independent experiments was analyzed by One-way ANOVA.

The target in series [6] is T2, NaV1.7/TMEM233. Type of series: cell-based.
In a further series the test system is HEK293 cells. Kind of series: ExTxA-488 binding assay, untransfected/mock HEK293. The arrangement: species or system human. As for the experimental part:
(§1) HEK293 cells (untransfected controls, or transfected with TMEM233, NaV1.7 or both TMEM233 and NaV1.7), were incubated in suspension with ExTxA conjugated to Alexa Fluor 488 (ExTxA-488) in assay buffer (250 mM NaCl, 25 mM HEPES, pH 7) for 30 min at 4 °C. Unbound ExTxA-488 was removed by washing cells three times with assay buffer. Cells were plated at a density of 100,000 cells per well in a volume of 50 µL in a 384-well OptiPlate (PerkinElmer, Massachusetts, USA). Fluorescence intensity (excitation 490 nm; emission 520 nm) was assessed using an Infinite M1000 Pro (Tecan, Männedorf, Switzerland). Concentration-response curves were fitted using the log (agonist) vs. response—variable slope (four parameters) equation and normalized to the largest fitted top from amongst the four groups as computed by GraphPad Prism Version 9.4.1.

In a further series the target is TMEM233 (Homo sapiens, UniProt B4DJY2). Kind of series: ExTxA-488 binding assay, TMEM233. As for the experimental part:
as §1

Series [7] has as its target T1, NaV1.7. Nature of the series: ExTxA-488 binding assay, NaV1.7. As to the method: as §1
Series [8] deals with T2, NaV1.7/TMEM233. Nature of the series: ExTxA-488 binding assay, NaV1.7/TMEM233. As for the experimental part:
as §1

Series [9] deals with T1, NaV1.7. Nature of the series: Recovery from fast inactivation, HEK293-NaV1.7 with peptide in intracellular solution. Type of series: cell-based. As to the method: To determine recovery from fast inactivation, a 20 ms pulse to 0 mV from a holding potential of −90 mV was used to induce fast inactivation. A subsequent recovery period, ranging from 1 ms to 2216 ms in 50% increments at −90 mV, was followed by a last 20 ms test pulses to 0 mV to determine the time-dependence of recovery from fast inactivation. The proportion of available channels was determined by normalizing peak currents from the last to the first pulse. A two-phase exponential equation was fit to the normalized current, plotted as a function of time, to determine the time constants τ1 and τ2 of recovery from fast inactivation.

Chain of TMEM233 (B4DJY2 whole entry): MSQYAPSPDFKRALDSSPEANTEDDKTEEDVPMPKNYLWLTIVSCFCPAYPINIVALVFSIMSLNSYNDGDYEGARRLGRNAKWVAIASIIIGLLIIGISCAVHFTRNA

For the molecule `NC1=N[C@H](O)[C@H]2[C@H]3O[C@]4(O)O[C@@H]([C@@H](O)[C@@]2(N1)[C@@H]4O)[C@]3(O)CO` [TTX, tetrodotoxin, reference compound], the “Mean Diff. of persistent current, ExTxA vs. ExTxA + TTX” value in series [1] came to 0.5123; in [3], 0.2464. The “Mean Diff. of persistent current, ExTxA vs. TTX” value at NaV1.7 [2] amounted to 0.1483.

With `C[C@@H]1O[C@@H](O[C@H]2C[C@@H](O)[C@]3(CO)[C@H]4[C@H](O)C[C@]5(C)[C@@H](C6=CC(=O)OC6)CC[C@]5(O)[C@@H]4CC[C@]3(O)C2)[C@H](O)[C@H](O)[C@H]1O` [ouabain, reference compound], the “cytotoxicity of the concentration used” value in the series on TE-671 cells was “non-cytotoxic”.

At NaV1.7/TMEM233 [4], `CC[C@H](C)[C@@H]1NC(=O)[C@H](CCCNC(=N)N)NC(=O)[C@H](Cc2ccccc2)NC(=O)[C@H](CC(C)C)NC(=O)[C@H](CO)NC(=O)[C@@H]2CSSC[C@@H]3NC(=O)[C@H]([C@@H](C)O)NC(=O)[C@H](CSSC[C@H](NC(=O)[C@H](CCCNC(=N)N)NC(=O)[C@@H]4CCCN4C(=O)[C@H](CC(C)C)NC(=O)CCOCCOCCOCCOCCNC(=O)CCCC[C@@H]4SC[C@@H]5NC(=O)N[C@@H]54)C(=O)N[C@@H](CC(=O)O)C(=O)N[C@@H](CO)C(=O)N4CCC[C@H]4C(=O)N[C@@H](Cc4ccccc4)C(=O)N2)NC(=O)[C@H](CCCCN)NC(=O)[C@H](CC(=O)O)NC(=O)CNC(=O)[C@H](CSSC[C@@H](C(=O)N[C@H](C(=O)N2CCC[C@H]2C(=O)N[C@@H](CC(=O)O)C(=O)N[C@H](C(=O)O)C(C)C)C(C)C)NC(=O)[C@H](CC(C)C)NC(=O)CNC(=O)[C@H](Cc2ccccc2)NC(=O)[C@H]([C@@H](C)CC)NC(=O)[C@@H]2CCCN2C(=O)[C@H](CC(C)C)NC(=O)[C@@H]2CCCN2C(=O)[C@H](C(C)C)NC3=O)NC(=O)[C@H](CC(C)C)NC(=O)CNC1=O` [ExTxA-Biotin] ({Biotin-PEG4}-LPRCDSPFCSLFRIGLCGDKCTCVPLPIFGLCVPDV-OH; disulfide 4-21, 9-23, 17-32) came in with a Bottom of -0.001461, a HillSlope of 0.9303, a LogEC50 of -6.256 and a Span of 0.7803. At NaV1.7/TMEM233 [4], the Top was 0.7788.

With `COc1ccc(C(=O)O[C@H]2CC[C@@]3(C)[C@@H]4CC[C@H]5[C@]6(O)C[C@H](O)[C@@]7(O)[C@@H](CN8C[C@@H](C)CC[C@H]8[C@@]7(C)O)[C@]6(O)C[C@@]53O[C@]24O)cc1OC` [veratridine, reference compound], the “cytotoxicity of the concentration used” value in the series with TE-671 cells is “non-cytotoxic”.

FLAG-NaV1.7: the “particles/cell, mean” value with NaV1.7/TMEM233 [5] (mean of n = 3) is 5.245 particles/cell. Moreover, the results for the particles/cell with NaV1.7/TMEM233 [5] (replicate 1), with NaV1.7/TMEM233 [5] (replicate 2) and with NaV1.7/TMEM233 [5] (replicate 3) were 1.95 particles/cell, 7.467 particles/cell and 6.319 particles/cell, respectively.

For `CC[C@H](C)[C@@H]1NC(=O)[C@H](CCCNC(=N)N)NC(=O)[C@H](Cc2ccccc2)NC(=O)[C@H](CC(C)C)NC(=O)[C@H](CO)NC(=O)[C@@H]2CSSC[C@@H]3NC(=O)[C@H]([C@@H](C)O)NC(=O)[C@H](CSSC[C@H](NC(=O)[C@H](CCCNC(=N)N)NC(=O)[C@@H]4CCCN4C(=O)[C@H](CC(C)C)NC(=O)[C@@H](N)CCCCn4cc(CNC(=O)c5ccc(-c6c7ccc(=N)c(S(=O)(=O)O)c-7oc7c(S(=O)(=O)O)c(N)ccc67)c(C(=O)O)c5)nn4)C(=O)N[C@@H](CC(=O)O)C(=O)N[C@@H](CO)C(=O)N4CCC[C@H]4C(=O)N[C@@H](Cc4ccccc4)C(=O)N2)NC(=O)[C@H](CCCCN)NC(=O)[C@H](CC(=O)O)NC(=O)CNC(=O)[C@H](CSSC[C@@H](C(=O)N[C@H](C(=O)N2CCC[C@H]2C(=O)N[C@@H](CC(=O)O)C(=O)N[C@H](C(=O)O)C(C)C)C(C)C)NC(=O)[C@H](CC(C)C)NC(=O)CNC(=O)[C@H](Cc2ccccc2)NC(=O)[C@H]([C@@H](C)CC)NC(=O)[C@@H]2CCCN2C(=O)[C@H](CC(C)C)NC(=O)[C@@H]2CCCN2C(=O)[C@H](C(C)C)NC3=O)NC(=O)[C@H](CC(C)C)NC(=O)CNC1=O` [Alexa488-ExTxA], the Bottom at NaV1.7/TMEM233 [4] came to 2.016e-5. In addition, the HillSlope is listed as 1.084 at NaV1.7/TMEM233 [4]; 0.9756 with HEK293 cells (Untransfected, four-parameter fit, Top = 1); 1.703 at TMEM233; 0.7934 at NaV1.7 [7] (Nav1.7, four-parameter fit, Top = 1); 1.366 at NaV1.7/TMEM233 [8]. The LogEC50 on NaV1.7/TMEM233 [4] is reported as -7.29; with HEK293 cells (Untransfected, four-parameter fit, Top = 1, 95% CI -5.502 to -5.307), -5.409; at TMEM233 it was -6.917; on NaV1.7 [7] (Nav1.7, four-parameter fit, Top = 1, 95% CI -5.409 to -4.797) it was -5.142; on NaV1.7/TMEM233 [8] it was -6.833. In addition, the Span on NaV1.7/TMEM233 [4] was 0.8012. Besides, on NaV1.7/TMEM233 [4], the Top amounted to 0.8013. The “Best-fit parameter Bottom” value at NaV1.7/TMEM233 [6] was 0.00002. In addition, the “Best-fit parameter Hill slope” value at NaV1.7/TMEM233 [6] is on record as 1.084. Moreover, the “Best-fit parameter Top” value at NaV1.7/TMEM233 [6] turned out to be 0.8013. Further, the “functional activity of tagged ExTxA” value on NaV1.7/TMEM233 [6] is “retained functional activity”. Moreover, the Max fluorescence in the series with HEK293 cells (Alexa488-ExTxA 1 µM, HEK293, mean ± SEM, n = 3) is recorded as 15,740 ± 2133 AFU; on TMEM233 (Alexa488-ExTxA 1 µM, TMEM233, mean ± SEM, n = 3), 38,681 ± 951.2 AFU; on NaV1.7 [7] (Alexa488-ExTxA 1 µM, NaV1.7, mean ± SEM, n = 3) it was 20,583 ± 3970 AFU; on NaV1.7/TMEM233 [8] (Alexa488-ExTxA 1 µM, NaV1.7/TMEM233, mean ± SEM, n = 3), 38,799 ± 2471 AFU.

Consider “1-41 TMEM233 (MSQYAPSPDFKRALDSSPEANTEDDKTEEDVPMPKNYLWLT; UniProt B4DJY2 1-41, looked up, fragment)”, for which, in the series with NaV1.7 [9], the “Tau Fast, difference between means (1-41 TMEM233 - BSA control) ± SEM” value stood at 3.270 ± 1.361; the “Tau Fast, individual values” is 5.876 and 7.835 and 7.406 and 14.82 and 9.055 and 12.01 and 6.932 and 17.51 and 10.21; the “Tau Fast, mean” value is given as 10.18.

In the case of BSA control, in the series with NaV1.7 [9], the “Tau Fast, individual values” is 7.097 and 5.916 and 7.352 and 7.278 and 4.563 and 7.588 and 6.382 and 7.242 and 8.803; the “Tau Fast, mean” value is 6.913.
